The results in this text go back to article PMC9499324, “Glycyrrhizic Acid Derivatives Bearing Amino Acid Residues in the Carbohydrate Part as Dengue Virus E Protein Inhibitors: Synthesis and Antiviral Activity” (International Journal of Molecular Sciences, 2022).

The test system of one assay is DENV2. The experiment in a line: DENV2 infectivity inhibition (anti-NS4B immunofluorescence) in A549 cells. The format is cell-based, Dengue virus type 2. To be noted: Dengue virus.
In another assay the test system is wild-type ZIKV SRIPs. Kind of assay: Attachment assay with wild-type ZIKV SRIPs on Vero E6 cells. Type of assay: cell-based, Zika virus. To be noted: 4 °C for 1 h. On the procedure:
(§1) Figure 7 Attachment inhibition of chimeric DENV2 prM-E/ZIKV and wild-type ZIKV SRIPs by active GL derivatives 3 and 11. Vero E6 cells were pre-cooled and incubated with fresh-prepared mixtures of DENV2 prM-E/ZIKV or wild-type ZIKV SRIPs, with active GL derivatives 3 (A), and 11 (B) at 4 °C for 1 h, respectively. After the removal of the mixtures, the cells were kept at 37 °C for 18 h and then an immunofluorescent assay with anti-ZIKV NS1 antibodies plus DAPI staining was performed. Finally, the inhibition percentage of SRIP attachment infectivity was measured as follows: 1-(percentage of ZIKV NS1 positivity in treated cells/ percentage of ZIKV NS1 positivity in mock-treated cells). * p < 0.05; *** p < 0.001 compared with untreated, infected cells.
(§2) DNA-launched cytomegaloviruses (CMV) promoter-driven JEV and ZIKV replicons had been constructed, as described in our prior reports. […] After the removal of the mixture (the compound and SRIP), the cells were incubated at 37 °C for 18 h, and then were analyzed by immunofluorescent assay with anti-JEV NS3 and anti-ZIKV NS5 antibodies, respectively, plus DAPI staining for determining the residual infectivity of wild-type and chimeric SRIPs, as described above.

The next assay has as its system DENV2 prME/ZIKV SRIPs. The experiment in a line: E protein-mediated attachment assay with chimeric DENV2 prME/ZIKV SRIPs on Vero E6 cells. To be noted: Vero C1008, 1 h, read-out: IC50 of E-mediated attachment against DENV2 prME/ZIKV SRIPs. The format is cell-based, Dengue virus type 2. Here is the method:
as §1, §2

`COC(=O)[C@H](NC(=O)[C@H]1O[C@@H](O[C@H]2[C@H](OC3CC[C@@]4(C)C(CC[C@]5(C)C4C(=O)C=C4C6C[C@@](C)(C(=O)O)CC[C@]6(C)CC[C@]45C)C3(C)C)O[C@H](C(=O)N[C@@H](C(=O)OC)C(C)C)[C@@H](O)[C@@H]2O)[C@H](O)[C@@H](O)[C@@H]1O)C(C)C` (stereo partly drawn) [Compound 3, 3-O-{2-O-[N-(β-D-Glucopyranosyluronoyl)-D-valinemethyl ester]-N-(β-D-glucopyranosyluronoyl)-D-valinemethyl ester}-(3β, 20β)-11-oxo-30-noroleane-12-ene-30-oic Acid]: the IC50 in the assay with DENV2 was determined as 120 ± 28 nM; in the assay on DENV2 prME/ZIKV SRIPs, 2820 nM. The “Attachment of wild-type ZIKV SRIPs onto Vero E6 cells” value in the assay with wild-type ZIKV SRIPs is listed as “did not impede”.

`CCOC(=O)[C@H](Cc1ccccc1)NC(=O)[C@H]1O[C@@H](O[C@H]2[C@H](OC3CC[C@@]4(C)C(CC[C@]5(C)C4C(=O)C=C4C6C[C@@](C)(C(=O)O)CC[C@]6(C)CC[C@]45C)C3(C)C)O[C@H](C(=O)N[C@@H](Cc3ccccc3)C(=O)OCC)[C@@H](O)[C@@H]2O)[C@H](O)[C@@H](O)[C@@H]1O` (stereo partly drawn) [Compound 11, 3-O-{2-O-[N-(β-D-Glucopyranosyluronoyl)-L-phenylalanineethyl ester]-N-(β-D-Glucopyranosyluronoyl)-L-phenylalanineethyl ester}-(3β, 20β)-11-oxo-30-noroleane-12-ene-30-oic Acid]: the values for the IC50 in the assay with DENV2 and with DENV2 prME/ZIKV SRIPs were 1560 ± 490 nM and 1260 nM, respectively. For the same compound, the “Attachment of wild-type ZIKV SRIPs onto Vero E6 cells” value in the assay on wild-type ZIKV SRIPs is on record as “did not impede”.
